Results on one compound are retold here after article PMC5218480 (PLoS ONE, 2017).

The subject of this assay is MV-4-11 cells. In words: Gene expression microarray analysis (Affymetrix PrimeView) and GSEA. Conditions: ProbeSet 11720154_at; LIST B. Also on record: RFU PODN (11730768_x_at) / Fold change /veh PODN (11730768_x_at) / RFU LINC00158 (11744669_a_at) / Fold change /veh LINC00158 (11744669_a_at) / RFU DUSP10 (11751237_a_at) / Fold change /veh DUSP10 (11751237_a_at) / RFU ID3 (11757404_x_at) / Fold change /veh ID3 (11757404_x_at) / RFU PLEKHG5 (11737974_s_at) / Fold change /veh PLEKHG5 (11737974_s_at) / RFU LRRC4B (11730491_at) / Fold change /veh LRRC4B (11730491_at) / RFU GIMAP4 (11747438_a_at) / Fold change /veh GIMAP4 (11747438_a_at) / RFU KRT8 (11758183_x_at) / Fold change /veh KRT8 (11758183_x_at) / RFU CNN1 (11734310_a_at) / Fold change /veh CNN1 (11734310_a_at) / RFU VPS37D (11726825_at) / Fold change /veh VPS37D (11726825_at) / RFU C10orf10 (11716522_x_at) / Fold change /veh C10orf10 (11716522_x_at) / RFU KIR2DL2 /// KIR2DL4 /// KIR2DL5A /// KIR2DL5B /// KIR2DS1 /// KIR2DS2 /// KIR2DS3 /// KIR2DS4 /// KIR3DL3 /// KIR3DL3 /// KIR3DS1 (11738374_at) / Fold change /veh KIR2DL2 /// KIR2DL4 /// KIR2DL5A /// KIR2DL5B /// KIR2DS1 /// KIR2DS2 /// KIR2DS3 /// KIR2DS4 /// KIR3DL3 /// KIR3DL3 /// KIR3DS1 (11738374_at) / RFU C1QL1 (11718748_at) / Fold change /veh C1QL1 (11718748_at) / RFU TMPRSS4 (11747572_a_at) / Fold change /veh TMPRSS4 (11747572_a_at) / RFU HAMP (11756126_x_at) / Fold change /veh HAMP (11756126_x_at) / RFU RNFT2 (11725882_a_at) / Fold change /veh RNFT2 (11725882_a_at) / RFU NR4A2 (11747474_a_at) / Fold change /veh NR4A2 (11747474_a_at) / RFU ABCC12 (11746883_a_at) / Fold change /veh ABCC12 (11746883_a_at) / RFU TMEM136 (11760407_x_at) / Fold change /veh TMEM136 (11760407_x_at) / RFU CLDN22 /// WWC2 (11732394_at) / Fold change /veh CLDN22 /// WWC2 (11732394_at) / RFU HLA-DPB1 (11760878_x_at) / Fold change /veh HLA-DPB1 (11760878_x_at) / RFU SPINT1 (11716480_a_at) / Fold change /veh SPINT1 (11716480_a_at) / RFU GAP43 (11754022_s_at) / Fold change /veh GAP43 (11754022_s_at) / RFU A4GNT (11735810_at) / Fold change /veh A4GNT (11735810_at) / RFU PRB3 (11715151_x_at) / Fold change /veh PRB3 (11715151_x_at) / RFU TUBB4B (11761932_at) / Fold change /veh TUBB4B (11761932_at) / RFU CAPN14 (11732068_a_at) / Fold change /veh CAPN14 (11732068_a_at) / RFU TMCC2 (11721928_a_at) / Fold change /veh TMCC2 (11721928_a_at) / RFU IRGQ (11745062_a_at) / Fold change /veh IRGQ (11745062_a_at) / RFU FAM174B (11720279_a_at) / Fold change /veh FAM174B (11720279_a_at) / RFU TMPRSS4 (11748680_a_at) / Fold change /veh TMPRSS4 (11748680_a_at) / RFU FAM212B (11763350_a_at) / Fold change /veh FAM212B (11763350_a_at) / RFU PLEKHG5 (11743358_a_at) / Fold change /veh PLEKHG5 (11743358_a_at) / RFU ZSCAN30 (11745921_a_at) / Fold change /veh ZSCAN30 (11745921_a_at) / RFU CMKLR1 (11741424_a_at) / Fold change /veh CMKLR1 (11741424_a_at) / RFU LOC101060620 /// MAPK8IP1 (11723275_at) / Fold change /veh LOC101060620 /// MAPK8IP1 (11723275_at) / RFU SPTSSB (11747773_x_at) / Fold change /veh SPTSSB (11747773_x_at) / RFU PRSS12 (11739890_at) / Fold change /veh PRSS12 (11739890_at) / RFU BIN1 (11741810_x_at) / Fold change /veh BIN1 (11741810_x_at) / RFU WNT11 (11732464_a_at) / Fold change /veh WNT11 (11732464_a_at) / RFU C10orf10 (11716521_a_at) / Fold change /veh C10orf10 (11716521_a_at) / RFU C5orf56 (11738089_at) / Fold change /veh C5orf56 (11738089_at) / RFU CYB561 (11721691_x_at) / Fold change /veh CYB561 (11721691_x_at) / RFU ANKRD19P (11752326_a_at) / Fold change /veh ANKRD19P (11752326_a_at) / RFU OR2T12 /// OR2T33 /// OR2T8 (11738714_s_at) / Fold change /veh OR2T12 /// OR2T33 /// OR2T8 (11738714_s_at) / RFU VCAN (11748164_a_at) / Fold change /veh VCAN (11748164_a_at) / RFU JSRP1 (11732532_at) / Fold change /veh JSRP1 (11732532_at) / RFU KRTAP10-11 (11738290_x_at) / Fold change /veh KRTAP10-11 (11738290_x_at) / RFU MYO3A (11730013_a_at) / Fold change /veh MYO3A (11730013_a_at) / RFU EBF3 (11725865_a_at) / Fold change /veh EBF3 (11725865_a_at) / RFU CAMK2N1 (11719241_x_at) / Fold change /veh CAMK2N1 (11719241_x_at) / RFU C5orf56 (11738088_a_at) / Fold change /veh C5orf56 (11738088_a_at) / RFU OLFML3 (11715873_a_at) / Fold change /veh OLFML3 (11715873_a_at) / RFU LOC100653217 /// NTM (11731650_a_at) / Fold change /veh LOC100653217 /// NTM (11731650_a_at) / RFU MAPK11 (11762145_a_at) / Fold change /veh MAPK11 (11762145_a_at) / RFU FIZ1 (11724087_x_at) / Fold change /veh FIZ1 (11724087_x_at) / RFU OASL (11726364_x_at) / Fold change /veh OASL (11726364_x_at) / RFU SOX15 (11748057_x_at) / Fold change /veh SOX15 (11748057_x_at) / RFU CD79A (11719716_a_at) / Fold change /veh CD79A (11719716_a_at) / RFU HIST1H1D (11736915_at) / Fold change /veh HIST1H1D (11736915_at) / RFU CASKIN2 (11723855_a_at) / Fold change /veh CASKIN2 (11723855_a_at) / RFU LOC730098 (11760151_x_at) / Fold change /veh LOC730098 (11760151_x_at) / RFU OR4N2 (11742367_at) / Fold change /veh OR4N2 (11742367_at) / RFU PRRT2 (11749266_a_at) / Fold change /veh PRRT2 (11749266_a_at) / RFU SNX32 (11753110_a_at) / Fold change /veh SNX32 (11753110_a_at) / RFU CDHR5 (11726645_a_at) / Fold change /veh CDHR5 (11726645_a_at) / RFU RCAN1 (11760418_a_at) / Fold change /veh RCAN1 (11760418_a_at) / RFU FAM167A (11723789_a_at) / Fold change /veh FAM167A (11723789_a_at) / RFU FAM26E (11764081_at) / Fold change /veh FAM26E (11764081_at) / RFU ISYNA1 (11749810_s_at) / Fold change /veh ISYNA1 (11749810_s_at) / RFU ACY1 (11761880_at) / Fold change /veh ACY1 (11761880_at) / RFU 11764098_at / Fold change /veh 11764098_at / RFU SAMD14 (11745864_x_at) / Fold change /veh SAMD14 (11745864_x_at) / RFU NPB (11741838_a_at) / Fold change /veh NPB (11741838_a_at) / RFU TMPRSS6 (11731388_a_at) / Fold change /veh TMPRSS6 (11731388_a_at) / RFU KRTAP10-2 (11738614_at) / Fold change /veh KRTAP10-2 (11738614_at) / RFU ARHGAP8 /// PRR5-ARHGAP8 (11727945_x_at) / Fold change /veh ARHGAP8 /// PRR5-ARHGAP8 (11727945_x_at) / RFU KRTAP5-7 /// NADSYN1 (11734609_at) / Fold change /veh KRTAP5-7 /// NADSYN1 (11734609_at) / RFU RASL12 (11751679_a_at) / Fold change /veh RASL12 (11751679_a_at) / RFU CDKN2B (11736163_a_at) / Fold change /veh CDKN2B (11736163_a_at) / RFU PRF1 (11729649_at) / Fold change /veh PRF1 (11729649_at) / RFU, ZNF638 /// ZNF638-IT1 / Fold change vs veh, ZNF638 /// ZNF638-IT1 / RFU, PANK3 / Fold change vs veh, PANK3 / RFU, SH3YL1 / Fold change vs veh, SH3YL1 / RFU, ZEB2 / Fold change vs veh, ZEB2 / RFU, NRIP1 / Fold change vs veh, NRIP1 / RFU, PTTG1IP / Fold change vs veh, PTTG1IP / RFU, CAPN2 / Fold change vs veh, CAPN2 / RFU, MED14 / Fold change vs veh, MED14 / RFU, SNORA58 / Fold change vs veh, SNORA58 / RFU, C1orf63 / Fold change vs veh, C1orf63 / RFU, LRRFIP1 / Fold change vs veh, LRRFIP1 / RFU, NDUFAF7 / Fold change vs veh, NDUFAF7 / RFU, SLC12A2 / Fold change vs veh, SLC12A2 / RFU, IBTK / Fold change vs veh, IBTK / RFU, ESF1 / Fold change vs veh, ESF1 / Fold change vs veh, TMEM50B / RFU, TAOK1 / Fold change vs veh, TAOK1 / RFU, ACBD3 / Fold change vs veh, ACBD3 / RFU, TMA16 / Fold change vs veh, TMA16 / RFU, RWDD3 / Fold change vs veh, RWDD3 / RFU, BCAT1 / Fold change vs veh, BCAT1 / RFU, EDEM3 / Fold change vs veh, EDEM3 / RFU, TMEM33 / Fold change vs veh, TMEM33 / RFU, WDR75 / Fold change vs veh, WDR75 / RFU, AHCTF1 / Fold change vs veh, AHCTF1 / RFU, TFRC / Fold change vs veh, TFRC / RFU, ZDHHC17 / Fold change vs veh, ZDHHC17 / RFU, NOM1 / Fold change vs veh, NOM1 / RFU, ARL8B / Fold change vs veh, ARL8B / RFU, ZBTB11 / Fold change vs veh, ZBTB11 / RFU, TAMM41 / Fold change vs veh, TAMM41 / RFU, KIAA1704 /// LOC100996395 / Fold change vs veh, KIAA1704 /// LOC100996395 / RFU, ING1 / Fold change vs veh, ING1 / RFU, TRMT61B / Fold change vs veh, TRMT61B / RFU, FUBP3 / Fold change vs veh, FUBP3 / RFU, TP53 / Fold change vs veh, TP53 / RFU, TNKS2 / Fold change vs veh, TNKS2 / RFU, ZFP14 / Fold change vs veh, ZFP14 / RFU, ACTR2 / Fold change vs veh, ACTR2 / RFU, PPP3R1 / Fold change vs veh, PPP3R1 / RFU, PIK3R1 / Fold change vs veh, PIK3R1 / RFU, HNRNPA1 / Fold change vs veh, HNRNPA1 / RFU, RNF170 / Fold change vs veh, RNF170 / RFU, ZNF28 / Fold change vs veh, ZNF28 / RFU, RNGTT / Fold change vs veh, RNGTT / RFU, OGT / Fold change vs veh, OGT / RFU, BRD1 / Fold change vs veh, BRD1 / RFU, MARS / Fold change vs veh, MARS / RFU, ZNF655 / Fold change vs veh, ZNF655 / RFU, FAHD1 / Fold change vs veh, FAHD1 / RFU, BDP1 / Fold change vs veh, BDP1 / RFU, LRRCC1 / Fold change vs veh, LRRCC1 / RFU, ARID1A / Fold change vs veh, ARID1A / RFU, ZNF146 / Fold change vs veh, ZNF146 / RFU, ZNF330 / Fold change vs veh, ZNF330 / RFU, GPN3 / Fold change vs veh, GPN3 / RFU, C9orf123 / Fold change vs veh, C9orf123 / RFU, N4BP2L2 / Fold change vs veh, N4BP2L2 / RFU, ARFIP1 / Fold change vs veh, ARFIP1 / RFU, FAM179B / Fold change vs veh, FAM179B / RFU, BCL10 / Fold change vs veh, BCL10 / RFU, UHRF1BP1L / Fold change vs veh, UHRF1BP1L / RFU, BET1 / Fold change vs veh, BET1 / RFU, CNOT2 / Fold change vs veh, CNOT2 / RFU, ZNF268 / Fold change vs veh, ZNF268 / Fold change vs veh, ZNF507 / RFU, DGCR2 / Fold change vs veh, DGCR2 / RFU, WDSUB1 / Fold change vs veh, WDSUB1 / Fold change vs veh, HSP90B1 /// MIR3652 / RFU, ADSS / Fold change vs veh, ADSS / RFU, GK / Fold change vs veh, GK / RFU, ZNF148 / Fold change vs veh, ZNF148 / RFU, TAF9 / Fold change vs veh, TAF9 / RFU, SLC1A5 / Fold change vs veh, SLC1A5 / RFU, SLMO2 / Fold change vs veh, SLMO2 / RFU, ABCC4 / Fold change vs veh, ABCC4 / RFU, LOC101060439 /// RAP1B / Fold change vs veh, LOC101060439 /// RAP1B / RFU, RFX7 / Fold change vs veh, RFX7 / RFU, GTPBP10 / Fold change vs veh, GTPBP10 / RFU, CNEP1R1 / Fold change vs veh, CNEP1R1 / RFU, BIVM-ERCC5 /// ERCC5 / Fold change vs veh, BIVM-ERCC5 /// ERCC5 / RFU, ILF3 / Fold change vs veh, ILF3 / RFU 11762660_at / Fold change /veh 11762660_at / RFU VCAN (11757783_s_at) / Fold change /veh VCAN (11757783_s_at) / RFU DDX43 (11728927_at) / Fold change /veh DDX43 (11728927_at) / RFU KRT8 (11758188_x_at) / Fold change /veh KRT8 (11758188_x_at) / RFU NKD1 (11759106_at) / Fold change /veh NKD1 (11759106_at) / RFU SRD5A1 (11742802_a_at) / Fold change /veh SRD5A1 (11742802_a_at) / RFU TPSAB1 /// TPSB2 (11721975_s_at) / Fold change /veh TPSAB1 /// TPSB2 (11721975_s_at) / RFU GSTM3 (11746129_a_at) / Fold change /veh GSTM3 (11746129_a_at) / RFU IL23R (11737362_x_at) / Fold change /veh IL23R (11737362_x_at) / RFU TMEM51 (11727254_a_at) / Fold change /veh TMEM51 (11727254_a_at) / RFU PIWIL2 (11732686_x_at) / Fold change /veh PIWIL2 (11732686_x_at) / RFU ORM1 (11744905_x_at) / Fold change /veh ORM1 (11744905_x_at) / RFU CCDC152 (11743942_at) / Fold change /veh CCDC152 (11743942_at) / RFU ECM1 (11717891_a_at) / Fold change /veh ECM1 (11717891_a_at) / RFU IL23R (11748794_a_at) / Fold change /veh IL23R (11748794_a_at) / RFU TNFAIP8L3 (11732012_x_at) / Fold change /veh TNFAIP8L3 (11732012_x_at) / RFU MBOAT4 (11741988_at) / Fold change /veh MBOAT4 (11741988_at) / RFU 11764193_at / Fold change /veh 11764193_at / RFU TMEM53 (11763286_at) / Fold change /veh TMEM53 (11763286_at) / RFU MAGEB2 (11727129_at) / Fold change /veh MAGEB2 (11727129_at) / RFU TMEM200A (11744735_a_at) / Fold change /veh TMEM200A (11744735_a_at) / RFU CCDC152 (11751479_a_at) / Fold change /veh CCDC152 (11751479_a_at) / RFU FAM211A (11726209_a_at) / Fold change /veh FAM211A (11726209_a_at) / RFU RGS16 (11746705_a_at) / Fold change /veh RGS16 (11746705_a_at) / RFU VCAN (11755009_s_at) / Fold change /veh VCAN (11755009_s_at) / RFU RHOB (11743442_s_at) / Fold change /veh RHOB (11743442_s_at) / RFU RGS16 (11720943_a_at) / Fold change /veh RGS16 (11720943_a_at) / RFU RGS16 (11720944_at) / Fold change /veh RGS16 (11720944_at) / RFU, VPS4B / Fold change vs veh, VPS4B / RFU, CREB1 / Fold change vs veh, CREB1 / RFU, DNAJC13 / Fold change vs veh, DNAJC13 / RFU, GNAQ / Fold change vs veh, GNAQ / RFU, CDK5R1 / Fold change vs veh, CDK5R1 / RFU, ZRANB3 / Fold change vs veh, ZRANB3 / RFU, CUL4A / Fold change vs veh, CUL4A / RFU, CCNY / Fold change vs veh, CCNY / RFU, UFL1 / Fold change vs veh, UFL1 / RFU, COG3 / Fold change vs veh, COG3 / RFU, DIAPH2 / Fold change vs veh, DIAPH2 / RFU, SKA2 / Fold change vs veh, SKA2 / RFU, AFF3 / Fold change vs veh, AFF3 / RFU, LMF1 / Fold change vs veh, LMF1 / RFU, IPO11 / Fold change vs veh, IPO11 / RFU, DFFB / Fold change vs veh, DFFB / RFU, FOXP1 / Fold change vs veh, FOXP1 / RFU, CARD8 / Fold change vs veh, CARD8 / RFU, STRN3 / Fold change vs veh, STRN3 / RFU, ADK / Fold change vs veh, ADK / RFU, RASSF2 / Fold change vs veh, RASSF2 / RFU, WIPF1 / Fold change vs veh, WIPF1 / RFU, LARP1B / Fold change vs veh, LARP1B / RFU, RASA1 / Fold change vs veh, RASA1 / RFU, RB1 / Fold change vs veh, RB1 / RFU, PPFIA1 / Fold change vs veh, PPFIA1 / RFU, MAT2A / Fold change vs veh, MAT2A / RFU, CCT5 / Fold change vs veh, CCT5 / RFU, WDR92 / Fold change vs veh, WDR92 / RFU, CUX1 / Fold change vs veh, CUX1 / RFU, TTC7A / Fold change vs veh, TTC7A / RFU, TMEM135 / Fold change vs veh, TMEM135 / RFU, DEPTOR / Fold change vs veh, DEPTOR / RFU, CPM / Fold change vs veh, CPM / RFU, DNAJB6 / Fold change vs veh, DNAJB6 / RFU, CACNA2D3 / Fold change vs veh, CACNA2D3 / RFU, DTX4 / Fold change vs veh, DTX4 / RFU, TFCP2 / Fold change vs veh, TFCP2 / RFU, GMCL1 /// GMCL1P1 / Fold change vs veh, GMCL1 /// GMCL1P1 / RFU, AEBP2 / Fold change vs veh, AEBP2 / RFU, SNHG1 /// SNORD22 /// SNORD25 /// SNORD26 /// SNORD27 /// SNORD28 /// SNORD29 /// SNORD31 / Fold change vs veh, SNHG1 /// SNORD22 /// SNORD25 /// SNORD26 /// SNORD27 /// SNORD28 /// SNORD29 /// SNORD31 / Fold change (Aza/veh), C12orf56 (ProbeSet 11735607_a_at) / Fold change (ACY-1035/veh), C12orf56 (ProbeSet 11735607_a_at) / Fold change (Aza/veh), FGFR1OP (ProbeSet 11751329_s_at) / Fold change (ACY-1035/veh), FGFR1OP (ProbeSet 11751329_s_at) / Fold change (Aza/veh), VPS36 (ProbeSet 11739960_a_at) / Fold change (ACY-1035/veh), VPS36 (ProbeSet 11739960_a_at) / RFU SYPL1 (11715823_x_at) / Fold change /veh SYPL1 (11715823_x_at) / RFU IGFBP7 (11715501_s_at) / Fold change /veh IGFBP7 (11715501_s_at) / RFU REEP3 (11722064_at) / Fold change /veh REEP3 (11722064_at) / RFU IGLL1 (11728026_x_at) / Fold change /veh IGLL1 (11728026_x_at): dose or concentration left out as unconfirmed. The assay is classed as cell-based, human.

Take `Nc1ncn([C@@H]2O[C@H](CO)[C@@H](O)[C@H]2O)c(=O)n1` [azacitidine]: the “RFU, NRIP1” value is reported as 462.80 RFU.
